This note sets out measurements from ChEMBL document CHEMBL2069291, “Orally available pyridinylpyrimidine derivatives as novel RANKL-induced osteoclastogenesis inhibitors” (Bioorg Med Chem Lett, 2012).

The term Cmax denotes the maximum level reached in the sampled fluid or tissue. The term AUC(0-inf) denotes total exposure, with the tail of the curve extrapolated. As a reminder, the solubility is how much of the substance goes into solution per volume. A high value points to much dissolved substance.

Data set [1] in a line: Permeability of the compound by PAMPA assay. The format is ADME. To be noted: read-out: permeability.
Data set [2] is described as follows: Cmax in female C57BL/6 mouse at 3 mg/kg, po administered as single dose. To be noted: in vivo. Set-up: dose 3 mg/kg, route oral. The format is ADME, organism-based.
Data set [3] can be described thus: AUC (0 to infinity) in female C57BL/6 mouse at 3 mg/kg, po administered as single dose. The format is ADME, organism-based. Set-up: dose 3 mg/kg, route oral, time infinity. To be noted: plasma.
Data set [4] can be described thus: Solubility in phosphate buffer at pH 6.8. In kind it is physicochemical.
A short description of data set [5]: Cmax in ovariectomized Wistar rat at 3 mg/kg, po administered as single dose. In kind it is ADME, organism-based. On the set-up: dose 3 mg/kg, route oral. To be noted: female, in vivo.
Data set [6] in a line: AUC (0 to infinity) in ovariectomized Wistar rat at 3 mg/kg, po administered as single dose. In kind it is ADME, organism-based. On the set-up: dose 3 mg/kg, route oral, time infinity. To be noted: female, plasma.
The nature of data set [7]: AUC (0 to infinity) in female C57BL/6 mouse at 1 mg/kg, po administered as single dose. To be noted: plasma.
A short description of data set [8]: Cmax in female C57BL/6 mouse at 1 mg/kg, po administered as single dose. To be noted: in vivo.

As to `COc1cnc(-c2ccccn2)nc1NCc1ccccc1F`, the Papp in data set [1] was greater than 30 ×10⁻⁶ cm/s. The values for the Cmax in data set [2] and in data set [5] were 130 ng/mL and 49 ng/mL, respectively. Also, the total exposure AUC(0-inf) in data set [3] amounted to 240 ng·h/mL; in data set [6] it was 151 ng·h/mL. In data set [4], this molecule had a solubility greater than 25 µg/mL.

With `COc1cnc(-c2ccccn2)nc1NCc1c(F)cc(F)cc1F`, the Papp in data set [1] is greater than 30 ×10⁻⁶ cm/s. For the same molecule, the peak concentration (Cmax) in data set [2] is 98 ng/mL; in data set [5] it was 135 ng/mL. The AUC(0-inf) worked out at 188 ng·h/mL in data set [3] and 542 ng·h/mL in data set [6]. The solubility in data set [4] was greater than 25 µg/mL.

As to `COc1cnc(-c2ccccn2)nc1NCc1ccc(F)cc1C(F)(F)F`, the Papp in data set [1] was greater than 30 ×10⁻⁶ cm/s. For the same molecule, the peak concentration (Cmax) in data set [2] amounted to 599 ng/mL; in data set [5], 156 ng/mL. Besides, the figures for the total exposure AUC(0-inf) in data set [3] and in data set [6] were 1020 ng·h/mL and 943 ng·h/mL, respectively. In data set [4], the solubility is greater than 25 µg/mL.

On to `COc1cnc(-c2ccccn2)nc1N1CCCC1`, for which the total exposure AUC(0-inf) in data set [7] came to 15 ng·h/mL. In addition, the Cmax in data set [8] is 7 ng/mL.
